Assay results taken from PMC4737580 (Bioorganic & medicinal chemistry letters, 2010).
Values belong to the compound of their own block, whether it stands above or below them.

Legend:
furin = furin (Homo sapiens, UniProt P09958); test: Furin inhibition, Ki from Dixon plots; format: biochemical
[1] = general statement, no reference given; cited from earlier work

furin, sequence (P09958 108-794): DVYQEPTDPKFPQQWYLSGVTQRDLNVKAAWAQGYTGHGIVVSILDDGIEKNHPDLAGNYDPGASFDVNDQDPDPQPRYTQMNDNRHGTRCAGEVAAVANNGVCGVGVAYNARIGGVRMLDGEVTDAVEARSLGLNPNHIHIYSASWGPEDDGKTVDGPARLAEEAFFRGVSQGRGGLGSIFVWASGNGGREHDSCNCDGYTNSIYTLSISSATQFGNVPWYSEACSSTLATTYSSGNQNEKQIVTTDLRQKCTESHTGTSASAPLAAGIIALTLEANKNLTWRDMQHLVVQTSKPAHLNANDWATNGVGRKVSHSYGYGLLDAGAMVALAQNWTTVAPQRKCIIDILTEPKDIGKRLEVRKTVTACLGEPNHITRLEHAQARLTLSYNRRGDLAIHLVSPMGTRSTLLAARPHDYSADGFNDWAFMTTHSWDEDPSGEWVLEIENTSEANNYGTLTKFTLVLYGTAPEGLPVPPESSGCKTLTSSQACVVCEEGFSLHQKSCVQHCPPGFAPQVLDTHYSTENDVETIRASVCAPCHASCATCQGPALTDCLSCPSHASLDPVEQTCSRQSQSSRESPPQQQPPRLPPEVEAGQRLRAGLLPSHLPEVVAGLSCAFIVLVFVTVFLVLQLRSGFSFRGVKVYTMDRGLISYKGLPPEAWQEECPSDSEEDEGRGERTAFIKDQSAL

- Ki (furin; Ki, Ki values from Dixon plots): 25 µM
SMILES: N=C(N)N/N=C/c1ccccc1OCc1ccc(Cl)cc1 [Compound 2]

- fold improved Ki compared to 1 (furin; relative to compound 1): approximately 4 fold
SMILES: C/C(=N\NC(=N)N)c1cc(NC(=O)CCCNC(=N)N)cc(/C(C)=N/NC(=N)N)c1 [Compound 17]

SMILES: N=C(N)N [guanidine]
- pKa [1]: approximately 13
